Numbered stars: 1 amine (or outer) side, 2 acyl side, 3 side chain; on linkers, the order of the positions; unused ones are H or OH. Square brackets hold non-standard residues; d marks the D form. Peptide text beside a SMILES is read from it. X1 = CCCCCCCCCCCCCCCC(=O)NC(=O)CC[C@H](N[*:1])C(=O)[*:2]
test system: Human immunodeficiency virus 1; assay: Antiviral activity against HIV-1 HXB2 assessed as inhibition of viral fusion with human TZM-bl cells after 6 hrs by luciferase reporter gene assay; format: functional, organism-based; conditions: Human immunodeficiency virus 1, HXB2, TZM-bl

IC50 [µM] | Compound
0.0013 | CCCCCCCCCCCCCCCC(=O)[C@H](CCCCN)NC(=O)[C@H](CCC(=O)O)NC(=O)[C@H](CC(C)C)NC(=O)[C@H](CC(C)C)NC(=O)[C@H](CCC(=O)O)NC(=O)[C@H](CCC(N)=O)NC(=O)[C@H](CCC(=O)O)NC(=O)[C@H](CC(N)=O)NC(=O)[C@H](CCCCN)NC(=O)[C@H](CCC(=O)O)NC(=O)[C@H](CCC(N)=O)NC(=O)[C@H](CCC(N)=O)NC(=O)[C@H](CC(N)=O)NC(=O)[C@H](CCC(N)=O)NC(=O)[C@H](CO)NC(=O)[C@H](CCC(=O)O)NC(=O)[C@H](CCC(=O)O)NC(=O)[C@@H](NC(=O)[C@H](CC(C)C)NC(=O)[C@H](CO)NC(=O)[C@H](Cc1c[nH]cn1)NC(=O)[C@@H](NC(=O)[C@H](CC(C)C)NC(=O)[C@H](CO)NC(=O)[C@@H](NC(=O)[C@@H](N)Cc1ccc(O)cc1)[C@H](C)O)[C@@H](C)CC)[C@@H](C)CC
2.86 | H-YTSLIHSLIEESQNQQEKNEQELLE-OH

test system: Human immunodeficiency virus 1; assay: Antiviral activity against HIV-1 HXB2 assessed as inhibition of viral infection in human TZM-bl cells after 18 hrs by steady-glo luciferase reporter gene assay; format: functional, organism-based; conditions: Human immunodeficiency virus 1, HXB2, TZM-bl

Compound | IC50 [µM]
CCCCCCCCCCCCCCCC(O)C(CO)NC(=O)NC(=O)[C@H](CCCCN)NC(=O)[C@H](CC(N)=O)NC(=O)[C@H](CCCCN)NC(=O)[C@H](CCC(=O)O)NC(=O)[C@H](CCC(N)=O)NC(=O)[C@H](CCC(N)=O)NC(=O)[C@H](CC(N)=O)NC(=O)[C@H](CCC(N)=O)NC(=O)[C@H](CO)NC(=O)[C@H](CCC(=O)O)NC(=O)[C@H](CCC(=O)O)NC(=O)[C@@H](NC(=O)[C@H](CC(C)C)NC(=O)[C@H](CO)NC(=O)[C@H](Cc1c[nH]cn1)NC(=O)[C@@H](NC(=O)[C@H](CC(C)C)NC(=O)[C@H](CO)NC(=O)[C@@H](NC(=O)[C@@H](N)Cc1ccc(O)cc1)[C@H](C)O)[C@@H](C)CC)[C@@H](C)CC (some centres undefined) | 0.35
CCCCCCCCCCCCCCCC(O)C(CO)NC(=O)N[C@@H](CC(C)C)C(=O)N[C@@H](CC(C)C)C(=O)N[C@@H](CCC(N)=O)C(=O)N[C@@H](CC(C)C)C(=O)N[C@H](C(=O)N[C@H](C(=O)N[C@@H](Cc1c[nH]c2ccccc12)C(=O)NCC(=O)N[C@H](C(=O)N[C@@H](CCCCN)C(=O)N[C@@H](CCC(N)=O)C(=O)N[C@@H](CC(C)C)C(=O)N[C@@H](CCC(N)=O)C(=O)N[C@@H](C)C(=O)N[C@@H](CCCNC(=N)N)C(=O)N[C@H](C(=O)N[C@@H](CC(C)C)C(=O)O)[C@@H](C)CC)[C@@H](C)CC)C(C)C)[C@H](C)O (some centres undefined) | 0.121
CCCCCCCCCCCCCCCC(O)C(CO)NCNC(=O)[C@@H](CCCCN)NC(=O)[C@H](CC(C)C)NC(=O)[C@@H](NC(=O)[C@H](CCCNC(=N)N)NC(=O)[C@H](C)NC(=O)[C@H](CCC(N)=O)NC(=O)[C@H](CC(C)C)NC(=O)[C@H](CCC(N)=O)NC(=O)[C@H](CCCCN)NC(=O)[C@@H](NC(=O)CNC(=O)[C@H](Cc1c[nH]c2ccccc12)NC(=O)[C@@H](NC(=O)[C@@H](NC(=O)[C@H](CC(C)C)NC(=O)[C@H](CCC(N)=O)NC(=O)[C@H](CC(C)C)NC(=O)[C@@H](N)CC(C)C)[C@H](C)O)C(C)C)[C@@H](C)CC)[C@@H](C)CC (some centres undefined) | 0.287

Results, then the compound that gave them:

IC50 [µM] | Compound
> 4 | CC[C@H](C)[C@H](NC(=O)CNC(=O)[C@H](Cc1c[nH]c2ccccc12)NC(=O)[C@@H](NC(=O)[C@@H](NC(=O)[C@H](CC(C)C)NC(=O)[C@H](CCC(N)=O)NC(=O)[C@H](CC(C)C)NC(=O)[C@@H](N)CC(C)C)[C@H](C)O)C(C)C)C(=O)N[C@@H](CCCCN)C(=O)N[C@@H](CCC(N)=O)C(=O)N[C@@H](CC(C)C)C(=O)N[C@@H](CCC(N)=O)C(=O)N[C@@H](C)C(=O)N[C@@H](CCCNC(=N)N)C(=O)N[C@H](C(=O)N[C@@H](CC(C)C)C(=O)O)[C@@H](C)CC
> 4 | CC[C@H](C)[C@H](NC(=O)[C@H](CC(C)C)NC(=O)[C@H](CO)NC(=O)[C@H](Cc1c[nH]cn1)NC(=O)[C@@H](NC(=O)[C@H](CC(C)C)NC(=O)[C@H](CO)NC(=O)[C@@H](NC(=O)[C@@H](N)Cc1ccc(O)cc1)[C@H](C)O)[C@@H](C)CC)C(=O)N[C@@H](CCC(=O)O)C(=O)N[C@@H](CCC(=O)O)C(=O)N[C@@H](CO)C(=O)N[C@@H](CCC(N)=O)C(=O)N[C@@H](CC(N)=O)C(=O)N[C@@H](CCC(N)=O)C(=O)N[C@@H](CCC(N)=O)C(=O)N[C@@H](CCC(=O)O)C(=O)N[C@@H](CCCCN)C(=O)N[C@@H](CC(N)=O)C(=O)N[C@@H](CCCCN)C(=O)O

test system: not listed separately; assay: Inhibition of HIV-1 HXBc2 env-mediated cell fusion between viral infected human Jurkat cells and non infected human Jurkat E6-1 cells after 6 hrs by DiI/DiD probe-based flow cytometric analysis; conditions: Human immunodeficiency virus 1, HXBc2, Jurkat

Compound | IC50 [µM]
CCCCCCCCCCCCCCCC(=O)NC(=O)CC[C@H](N)C(=O)N[C@@H](CC(C)C)C(=O)N[C@@H](CC(C)C)C(=O)N[C@@H](CO)C(=O)NCC(=O)N[C@H](C(=O)N[C@H](C(=O)N[C@@H](CCC(N)=O)C(=O)N[C@@H](CCC(N)=O)C(=O)N[C@@H](CCC(N)=O)C(=O)N[C@@H](CC(N)=O)C(=O)N[C@@H](CC(N)=O)C(=O)N[C@@H](CC(C)C)C(=O)N[C@@H](CC(C)C)C(=O)N[C@@H](CCCNC(=N)N)C(=O)N[C@@H](C)C(=O)N[C@H](C(=O)N[C@@H](CCC(=O)O)C(=O)N[C@@H](C)C(=O)N[C@@H](CCC(N)=O)C(=O)N[C@@H](CCC(N)=O)C(=O)N[C@@H](Cc1c[nH]cn1)C(=O)N[C@@H](CC(C)C)C(=O)N[C@@H](CC(C)C)C(=O)N[C@@H](CCC(N)=O)C(=O)O)[C@@H](C)CC)C(C)C)[C@@H](C)CC (H-[X1]LLSGIVQQQNNLLRAIEAQQHLLQ-OH) | 0.01
H-LLSGIVQQQNNLLRAIEAQQHLLQ-OH | 0.338
